BigSolDB 2.1

O=C(O)c1cccnc1
Details | solubility (mole fraction)
in DMSO, 293.56 K | 0.0597
in DMSO, 303.38 K | 0.074
in DMSO, 313.07 K | 0.0911
in DMSO, 322.84 K | 0.109
in DMSO, 332.36 K | 0.131
in acetone, 285.46 K | 0.000733
in acetone, 292.26 K | 0.00114
in acetone, 296.8 K | 0.00137
in acetone, 302.14 K | 0.00161
in acetone, 307.1 K | 0.00231
in acetone, 317.11 K | 0.00318
in acetonitrile, 283.3 K | 7.12e-05
in acetonitrile, 288.51 K | 0.00012
in acetonitrile, 293.01 K | 0.00017
in acetonitrile, 297.58 K | 0.000185
in acetonitrile, 302.63 K | 0.000268
in acetonitrile, 306.91 K | 0.000354
in acetonitrile, 312.49 K | 0.000475
in acetonitrile, 316.21 K | 0.000547
in acetonitrile, 322.45 K | 0.000715
in acetonitrile, 332.32 K | 0.00107
in diethyl ether, 283.45 K | 0.000322
in diethyl ether, 285.74 K | 0.000379
in diethyl ether, 290.57 K | 0.000539
in diethyl ether, 294.02 K | 0.000618
in diethyl ether, 298.66 K | 0.000813
in ethanol, 283.38 K | 0.00224
in ethanol, 293.46 K | 0.00309
in ethanol, 303.15 K | 0.00423
in ethanol, 312.83 K | 0.00605
in ethanol, 322.64 K | 0.00843
in ethanol, 332.43 K | 0.0115
in water, 283.59 K | 0.00172
in water, 293.41 K | 0.00218
in water, 303.03 K | 0.00281
in water, 312.49 K | 0.00475
in water, 312.97 K | 0.00365
in water, 316.21 K | 0.00547
in water, 322.45 K | 0.00715
in water, 322.83 K | 0.00465
in water, 332.01 K | 0.00586
in water, 332.32 K | 0.0107
